Source: PMC9103942, “A Tumor-Homing Peptide Platform Enhances Drug Solubility, Improves Blood–Brain Barrier Permeability and Targets Glioblastoma” (Cancers, 2022)

Key:
[1] = Compound solubility in saline vs pure DMSO (LC-MS of supernatant); assay type: physicochemical; details: room temperature 5 min, centrifuged, LC-MS EIC
Experimental: Dried powder of each compound was first resuspended in pure DMSO to form a 10 mm stock. Each stock was then diluted in saline (0.9% NaCl) to form an aqueous solution of 100 µm (final DMSO 1% (v/v)) or 1.3 mM (final DMSO 10% (v/v)) of each compound. The samples were incubated at room temperature for 5 min, then centrifuged at 10,000 rcf for 10 min to pellet any precipitates. 5 µL of supernatant was diluted into LC-MS vials containing 100 µL of 50:50 water:acetonitrile with 0.1% TFA additive and analyzed by LC-MS. The presence of soluble compound in each supernatant was determined by quantifying the ion count in the extracted ion chromatogram (EIC) using the MassHunter software. Solubility was measured by comparing the total EIC of the sample diluted in saline vs. in pure DMSO. Each sample was measured in duplicates.
To test the solubility of each compound in aqueous solution, a 10 mm stock of each compound in pure DMSO was diluted in saline solution (0.9% sodium chloride in water) to a final concentration of either 100 µm or 1.3 mm. The samples were incubated at room temperature for 5 min and centrifuged to remove any precipitate. The supernatant was analyzed by liquid chromatography–mass spectrometry (LC-MS). To quantify solubility, the extracted ion count from samples diluted in saline was normalized to samples diluted in pure DMSO.

[2] = Ex vivo serum stability assay, mouse serum; assay type: in vitro ADME; details: 25% mouse serum, over 12 h
Experimental: Mouse serum was obtained from 8–10-week-old athymic female mice. Mice were euthanized by CO2 asphyxiation with secondary decapitation to ensure death. An incision was made from the neck to the abdomen and the thorax was cut to expose the heart. An amount of 100 µL of heparin was then injected directly into the right atrium to prevent the blood from clotting. A cardiac puncture was performed by piercing the left ventricle with a 21G needle to remove 400–1000 µL of blood. Blood from five mice was collected and combined in a 10-mL centrifuge tube and centrifuged for 5 min at 500 rcf at 4 °C. The top layer containing the serum (opaque) was removed and stored at −20 °C.
To test for serum stability, a 10 mM stock of BTP-7-CPT and Scr-7-CPT was prepared in DMSO. Each compound (1.4 µL) was transferred into a microcentrifuge tube containing 200 µL of PBS with 25% mouse serum, or in PBS alone, and incubated at 37 °C (final concentration 70 μm). […] Samples containing the peptide were eluted with 10 µL of 70% acetonitrile in water containing 0.1% TFA into an LC-MS vial containing 20 µL of water with 0.1% TFA additive and analyzed via LC-MS. The amount of intact compound was determined through quantifying the ion count in the extracted ion chromatogram (EIC) using the MassHunter software. […]

[3] = biological target: T1, recombinant dg-Bcan protein (Homo sapiens, UniProt Q96GW7); assay: Octet binding kinetic analysis (steady state) to recombinant dg-Bcan; details: one site specific binding fit, Octet RED
T1 construct: purchased R&D Systems 4009-BC-050
T1 sequence (Q96GW7 23-911): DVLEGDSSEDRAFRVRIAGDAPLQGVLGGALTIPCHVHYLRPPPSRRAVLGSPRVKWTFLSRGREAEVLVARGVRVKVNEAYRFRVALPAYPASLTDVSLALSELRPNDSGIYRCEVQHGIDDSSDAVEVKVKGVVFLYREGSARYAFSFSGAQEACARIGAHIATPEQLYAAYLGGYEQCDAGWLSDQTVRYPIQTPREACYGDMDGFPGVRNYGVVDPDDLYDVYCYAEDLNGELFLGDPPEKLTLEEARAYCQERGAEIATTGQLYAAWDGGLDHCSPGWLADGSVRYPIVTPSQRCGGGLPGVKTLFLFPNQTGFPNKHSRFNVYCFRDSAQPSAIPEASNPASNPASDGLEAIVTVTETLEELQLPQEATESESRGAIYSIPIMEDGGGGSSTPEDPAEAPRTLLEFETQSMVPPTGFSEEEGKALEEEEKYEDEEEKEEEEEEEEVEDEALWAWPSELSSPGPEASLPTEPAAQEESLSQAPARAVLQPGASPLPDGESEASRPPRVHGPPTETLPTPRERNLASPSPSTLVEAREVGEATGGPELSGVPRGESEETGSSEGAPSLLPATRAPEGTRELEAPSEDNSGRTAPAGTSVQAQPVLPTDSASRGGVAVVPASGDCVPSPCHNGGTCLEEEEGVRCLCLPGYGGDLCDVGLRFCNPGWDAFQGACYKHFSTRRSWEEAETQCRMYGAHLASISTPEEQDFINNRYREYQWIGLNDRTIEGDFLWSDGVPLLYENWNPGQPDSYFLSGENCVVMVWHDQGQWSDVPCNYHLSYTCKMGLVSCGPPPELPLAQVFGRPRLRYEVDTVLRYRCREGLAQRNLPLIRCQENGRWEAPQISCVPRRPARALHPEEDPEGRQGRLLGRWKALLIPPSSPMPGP
Experimental: Figure 3 Cytotoxicity of BTP-7-CPT. (a) Western blot showing expression of dg-Bcan in patient-derived GBM-X6 cells, as well as in Bcan-overexpressing HEK cells (HEK-Bcan). (b) Binding kinetics analysis (steady-state) of BTP-7-CPT (red) and unmodified CPT (blue) to recombinant dg-Bcan protein using the ForteBio Octet system. Rmax (maximal response in response unit) and KD (dissociation constant) were calculated using a non-linear regression (one site specific binding) fit using the Graphpad Prism software. (c) Luminescent cell viability (CellTiter-Glo) of GBM-X6 cells treated with BTP-7-CPT (nwells = 3) for 72 h. (d) Luminescent cell viability (CellTiter-Glo) of GS401 recurrent GBM cells treated with BTP-7-CPT (nwells = 3) for 72 h. All IC50 values were measured through the non-linear ‘log(inhibitor) vs. response—variable slope (four parameters)’ fit. […] Statistical significance was calculated using a two-way ANOVA, Sidak’s multiple comparisons test (* p < 0.05, *** p < 0.001, **** p < 0.0001). […]
Infrared spectroscopy (IR). Infrared spectra (IR) were recorded on a Bruker Alpha II FTIR. […]
Then, biosensors were exposed to the analyte (peptide) in working buffer (ranging between 0– 10 µM BTP) for 300 s during the ‘association’ step. […] Binding affinity of each peptide was assessed through steady state analysis, where the response unit was plotted over peptide concentration. […]

[4] = Serum stability, human serum; assay type: in vitro ADME; details: 25% human serum; for half-life at 70 µM: human, LC-MS, normalized to EIC at t = 0
[5] = set-up: method as in PMID 33997269; details: cited from earlier work

Row | half-life at 70 µM [4] | remaining at 24 h ([4]; after 24 h of incubation, read-out: peptide still intact) | SMILES | soluble compound present in saline relative to in pure DMSO ([1]; 1.3 mm in saline (0.9% NaCl), 10% DMSO) | soluble compound present in saline relative to in pure DMSO ([1]; 100 µm in saline (0.9% NaCl), 1% DMSO) | stability in mouse serum (detectable compound vs PBS) [2] | KD (dissociation constant) [3] | stability in mouse serum [5]
1 |  |  | CC[C@@]1(O)C(=O)OCc2c1cc1n(c2=O)Cc2cc3ccccc3nc2-1 [CPT, camptothecin] | practically undetectable | 30% | no decline in detectable compound over 12 h | did not exhibit any affinity | 
2 | 0.16 h |  | CC(C)[C@@H](NC(=O)[C@@H](Cc1c[nH]cn1)NC(=O)CNC(=O)[C@@H](Cc1c[nH]c2ccccc12)NC(=O)[C@@H](CCCCN)NC(=O)[C@H](N)[C@H](C)O)C(=O)N[C@H](CC(N)=O)C(=O)N[C@H](CCCCN)C(=O)NCCCCCC(=O)N[C@@H](CS)C(N)=O [BTP-7-X-Cys] |  |  |  |  | 
3 | 4.4 h | ~40% | CC(C)[C@@H](NC(=O)[C@@H](Cc1c[nH]cn1)NC(=O)CNC(=O)[C@@H](Cc1c[nH]c2ccccc12)NC(=O)[C@@H](CCCCN)NC(=O)[C@H](N)[C@H](C)O)C(=O)N[C@H](CC(N)=O)C(=O)N[C@H](CCCCN)C(=O)NCCCCCC(N)=O [BTP-7-X] |  |  |  |  | stable in mouse serum
